Data taken from patent US20150258129A1, “Method for Increasing the Activity of Lysosomal Enzymes” (Mount Sinai School of Medicine of New York University, priority 1998, published 2015).

Columns and labels:
[1] = system: almond β-galactosidase; settings: cited from earlier work
[2] = target: T1, glucocerebrosidase (β-Glu), N370S/N370S (Homo sapiens, UniProt P04062, N409S); assay: Intracellular enhancement of β-Glu activity in Gaucher fibroblasts (N370S/N370S); type: cell-based
T1 construct: endogenous in cells; host or cells: human Gaucher patient fibroblasts, genotype N370S/N370S
T1 sequence (P04062 40-536 N409S): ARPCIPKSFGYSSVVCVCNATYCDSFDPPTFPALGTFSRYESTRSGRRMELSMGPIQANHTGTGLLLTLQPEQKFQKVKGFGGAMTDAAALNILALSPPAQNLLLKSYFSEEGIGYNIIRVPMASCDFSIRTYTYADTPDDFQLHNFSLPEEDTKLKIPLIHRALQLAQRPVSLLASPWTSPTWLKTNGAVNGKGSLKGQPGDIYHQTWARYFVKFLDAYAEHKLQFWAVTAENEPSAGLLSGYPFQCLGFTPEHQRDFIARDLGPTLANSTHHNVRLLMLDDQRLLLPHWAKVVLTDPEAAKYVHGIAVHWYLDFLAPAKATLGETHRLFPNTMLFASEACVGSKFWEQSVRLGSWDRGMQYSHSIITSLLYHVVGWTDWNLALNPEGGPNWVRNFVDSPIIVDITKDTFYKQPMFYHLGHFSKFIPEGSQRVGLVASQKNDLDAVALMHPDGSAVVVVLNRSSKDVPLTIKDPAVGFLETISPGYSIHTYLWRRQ

- increase of intracellular β-Glu activity in Gaucher fibroblasts ([2]; N370S/N370S, 1-50 μM in the culture medium, FIG. 8A): 55-80%
- residual β-Glu activity in Gaucher cells, time course ([2]; N370S/N370S, day 1 or 2, FIG. 8B): did not change
- increase of β-Glu activity in Gaucher cells, time course ([2]; N370S/N370S, day 5, FIG. 8B): more than 80%
- β-Glu enhancement effect at high concentration ([2]; N370S/N370S, higher than 50 μM): nullified the enhancement effect
- intracellular β-Glu activity in Gaucher fibroblasts (summary) ([2]; concentration ranges of 0.05-100 μM): effectively enhance
SMILES: OC[C@H]1CNC[C@@H](O)[C@@H]1O [compound 33, isofagomine]
- inhibition of almond β-galactosidase (in words) [1]: potent inhibitor
